# Source: US20090130118A1, “SCUTELLARIA BARBATA EXTRACT AND COMBINATIONS FOR THE TREATMENT OF CANCER” (BIONOVO, INC., priority 2007, published 2009)
# Key:
# GnHR receptor = target: T1, GnHR receptor (Homo sapiens, UniProt P30968); details: in vivo studies; cited from earlier work
# T1 sequence (P30968 1-328): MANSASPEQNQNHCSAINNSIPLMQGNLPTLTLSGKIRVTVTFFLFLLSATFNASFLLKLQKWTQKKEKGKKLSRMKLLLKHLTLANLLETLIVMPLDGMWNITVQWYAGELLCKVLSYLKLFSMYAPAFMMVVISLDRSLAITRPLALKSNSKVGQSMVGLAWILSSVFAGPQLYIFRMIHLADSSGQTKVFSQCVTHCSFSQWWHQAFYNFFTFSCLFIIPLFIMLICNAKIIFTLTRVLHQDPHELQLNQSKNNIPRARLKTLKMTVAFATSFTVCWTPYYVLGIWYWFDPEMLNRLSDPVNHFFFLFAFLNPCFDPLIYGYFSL
# [1] = tested on: subcutaneous cancer xenografts; experiment: Mouse xenograft model, oral administration; assay type: in vivo; details: BZL101 0.5 ml oral gavage every third day; cyclophosphamide 25 mg/Kg/day in drinking water; FIG. 6
# Experimental: As in Example 1, above, 10^5 cells were administered to each animal subcutaneously on Day 0. The animals were divided into four groups. The control group received only normal drinking water. The cyclophosphamide only group received 25 mg/Kg/day of cyclophosphamide in their drinking water.
# aromatase = target: T2, aromatase (Homo sapiens, UniProt P11511); details: in vivo studies; cited from earlier work
# T2 sequence (P11511 1-503): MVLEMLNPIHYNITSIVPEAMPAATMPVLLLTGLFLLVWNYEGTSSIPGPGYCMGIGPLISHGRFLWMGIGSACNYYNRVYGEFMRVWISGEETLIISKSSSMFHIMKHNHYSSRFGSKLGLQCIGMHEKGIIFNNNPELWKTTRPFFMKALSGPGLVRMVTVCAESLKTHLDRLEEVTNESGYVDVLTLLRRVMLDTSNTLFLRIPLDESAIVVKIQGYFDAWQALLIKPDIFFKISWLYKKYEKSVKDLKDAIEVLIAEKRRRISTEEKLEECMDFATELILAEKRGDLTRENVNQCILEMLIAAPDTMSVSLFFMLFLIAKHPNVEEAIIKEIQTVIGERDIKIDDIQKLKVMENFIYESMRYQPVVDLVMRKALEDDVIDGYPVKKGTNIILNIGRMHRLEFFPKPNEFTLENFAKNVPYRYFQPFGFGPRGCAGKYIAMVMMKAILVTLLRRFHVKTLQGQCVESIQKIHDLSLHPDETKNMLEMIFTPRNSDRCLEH
# human tumor xenographs = details: doses from 0.75 mg/kg/day to 1.5 mg/kg/day; cited from earlier work
# ETBR = target: T3, ETBR (Homo sapiens, UniProt P24530); details: cited from earlier work
# T3 sequence (P24530 27-442): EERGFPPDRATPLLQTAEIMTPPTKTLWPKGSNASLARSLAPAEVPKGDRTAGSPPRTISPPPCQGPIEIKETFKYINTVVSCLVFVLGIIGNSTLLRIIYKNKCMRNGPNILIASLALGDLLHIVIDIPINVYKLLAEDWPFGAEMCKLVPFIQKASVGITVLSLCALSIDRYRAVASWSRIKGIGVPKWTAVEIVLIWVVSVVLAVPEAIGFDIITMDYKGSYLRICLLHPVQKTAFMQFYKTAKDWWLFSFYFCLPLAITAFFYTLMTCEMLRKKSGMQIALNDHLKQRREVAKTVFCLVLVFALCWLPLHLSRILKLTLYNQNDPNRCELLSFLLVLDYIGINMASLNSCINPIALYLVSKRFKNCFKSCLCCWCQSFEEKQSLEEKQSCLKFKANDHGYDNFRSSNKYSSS
# ETAR = target: T4, ETAR (Homo sapiens, UniProt P25101); details: cited from earlier work
# T4 sequence (P25101 21-427): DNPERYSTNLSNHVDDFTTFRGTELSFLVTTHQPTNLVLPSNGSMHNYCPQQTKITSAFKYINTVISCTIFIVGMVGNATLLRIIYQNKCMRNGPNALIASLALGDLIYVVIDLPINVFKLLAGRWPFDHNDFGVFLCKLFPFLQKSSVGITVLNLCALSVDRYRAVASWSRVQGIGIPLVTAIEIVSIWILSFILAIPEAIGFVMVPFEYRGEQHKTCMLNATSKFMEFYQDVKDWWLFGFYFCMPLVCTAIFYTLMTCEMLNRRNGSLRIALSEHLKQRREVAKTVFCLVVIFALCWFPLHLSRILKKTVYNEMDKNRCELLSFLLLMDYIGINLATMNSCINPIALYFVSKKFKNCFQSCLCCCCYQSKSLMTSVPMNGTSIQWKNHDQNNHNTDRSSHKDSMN
# estrogen receptor = target: T5, estrogen receptor (Homo sapiens, UniProt P03372); details: cited from earlier work
# T5 sequence (P03372 1-595): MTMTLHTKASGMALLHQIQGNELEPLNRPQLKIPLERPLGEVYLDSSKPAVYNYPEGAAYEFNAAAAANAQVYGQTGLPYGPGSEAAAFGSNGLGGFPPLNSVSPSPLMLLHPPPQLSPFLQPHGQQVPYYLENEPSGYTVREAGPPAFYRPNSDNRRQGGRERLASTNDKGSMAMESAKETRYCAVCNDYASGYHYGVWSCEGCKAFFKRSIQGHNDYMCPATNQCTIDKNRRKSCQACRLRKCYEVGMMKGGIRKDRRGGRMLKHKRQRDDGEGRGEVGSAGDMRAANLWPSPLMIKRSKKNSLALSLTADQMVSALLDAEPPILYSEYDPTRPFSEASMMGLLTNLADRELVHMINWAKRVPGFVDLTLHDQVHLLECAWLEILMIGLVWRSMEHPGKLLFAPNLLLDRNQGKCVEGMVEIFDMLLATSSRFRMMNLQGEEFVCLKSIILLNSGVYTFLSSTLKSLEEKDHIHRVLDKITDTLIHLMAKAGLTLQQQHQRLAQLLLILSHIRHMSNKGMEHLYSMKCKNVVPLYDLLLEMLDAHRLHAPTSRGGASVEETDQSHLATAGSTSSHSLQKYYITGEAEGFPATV
# estrogen receptors = details: compared with estrodiol; cited from earlier work
compound,measurement,setting,value
CC(C)C[C@H](NC(=O)[C@@H](COC(C)(C)C)NC(=O)[C@H](Cc1ccc(O)cc1)NC(=O)[C@H](CO)NC(=O)[C@H](Cc1c[nH]c2ccccc12)NC(=O)[C@H](Cc1cnc[nH]1)NC(=O)[C@@H]1CCC(=O)N1)C(=O)N[C@@H](CCCNC(=N)N)C(=O)N1CCC[C@H]1C(=O)NNC(N)=O [Goserelin],"production of FSH and LH and sex hormones, initial effect",GnHR receptor,initial increase in production of FSH and LH
same,time after which the receptor is downregulated and LH or FSH levels fall,GnHR receptor,14 to 21 days
O=P1(N(CCCl)CCCl)NCCCO1 (stereo not drawn) [cyclophosphamide],tumor growth in xenograft,[1],inhibited tumor growth as compared to the control
CC(C)(C#N)c1cc(Cn2cncn2)cc(C(C)(C)C#N)c1 [Anastrozole],serum estradiol concentrations,aromatase,significantly lowers serum estradiol concentrations
COc1cc2c(Oc3ccc4[nH]c(C)cc4c3F)ncnc2cc1OCCCN1CCCC1 [AZD 2171],tumor angiogenesis,human tumor xenographs,inhibited tumor angiogenesis
COc1nc(C)cnc1NS(=O)(=O)c1cccnc1-c1ccc(-c2nnco2)cc1 [ZD4054],effect on ETBR,ETBR,no detectable effect on ETBR
same,binding to ETAR,ETAR,only binds to ETAR
C[C@]12CC[C@@H]3c4ccc(O)cc4C[C@@H](CCCCCCCCC[S+]([O-])CCCC(F)(F)C(F)(F)F)[C@H]3[C@@H]1CC[C@@H]2O (stereo partly drawn) [Fulvestrant],effect on estrogen receptor level,estrogen receptor,downregulates and degrades the estrogen receptor
same,affinity for estrogen receptors,estrogen receptors,affinity that is similar to that of estrodiol
